The text below walks through data of article PMC9925730, “Controlled sequential in situ self-assembly and disassembly of a fluorogenic cisplatin prodrug for cancer theranostics” (Nature Communications, 2023).

Where “and” joins values, the source holds several entries; their conditions need not be identical. Identical values can stand only once.

The nature of series [1]: CMC of CyPt and stability of PtIVNPs under different pH conditions. Type of series: physicochemical. The conditions noted are these: for FL intensity at 710 nm: Supplementary Fig. 8 a. The protocol:
Co n cen t rati o n (μM) Time (h) Time (h)
Supplementary Figure 8. Evaluation of the CMC and stability of PtIVNPs under different pH conditions. (a) Plots of the fluorescence intensity (λem = 710 nm) versus the concentration of CyPt in Tris buffer determine the CMC of CyPt, which was found to be ~0.3 μM according to the intersection of the two linear fit lines. (b, c) Monitoring of the hydrodynamic size of Pt IVNPs upon incubation under (b) pH = 5.0, and (c) pH = 7.4 (10 μM) for 0-24 h. Date denote mean ± s.d. (n = 3 independent experiments).
(also on this page, place not known: Na 3VO4 ( λem 850 800 Normalized FL intensity Tris Trypsin Caspase-3 Normalized FL intensity 200Diameter (nm) 10 Diameter (nm) 7.4(b) CMC=0.3 00 . . 51.0 Concentration FL intensity (1 X 105) 0 2 1.5 2.0 3.0 (c)(a))

Series [2] deals with s.c. HeLa tumors. The series is described as follows: Ex vivo FL imaging of resected tumors and organs. Type of series: in vivo, mice. The conditions noted are these: 4 h post i.v. injection. On the procedure:
Supplementary Figure 27. Ex vivo FL imaging of tumors and main organs. (a) Representative ex vivo FL images (λex/em = 660/750 ± 50 nm) and (b) average FL intensities of tumors and main organs resected from P-CyPt- or PtIVNPs-treated HeLa […]
200 μL). After 4 h, the mice were sacrificed. Tumors (T) and main organs, including liver (L), heart (H), spleen (Sp), lung (Lu), kidney (K), stomach (St), and intestine (In) were resected, and the FL images were acquired on the IVIS spectrum imager. Values denote mean ± s.d. (n = 3 independent animals). Statistical difference was analyzed by Student’s two-sided t-test. Source data are provided as a Source Data file.
Supplementary Figure 28. FL imaging of resected tumor tissue slices. FL images of tumor tissue slices (10 μm thickness) resected from s.c. HeLa tumor-bearing mice at 4 h after i.v. injection of PBS (200 μL), PtIVNPs or P-CyPt (100 μM, 200 μL). Cell nuclei were co-stained with DAPI (blue). […]
μm. […] The fluorescence images of the MCTS were captured on a Leica TCS SP8 confocal laser scanning microscope, microscope (TCS SP8 STED 3X) with 10x/0.4 dry lens (Leica), and captured at RGB on a HyD detector (Leica Dmi8) under PI and Cy5.5 channels. […]
were sacrificed after 4 h. […] The fluorescence images of these organs and tumors were acquired with the IVIS Lumina XR III imaging system using a 660 nm excitation filter and a 750 ± 50 nm emission filter. […]

In the next series the target is T1, ALP (Bos taurus, UniProt P19111).
T1 construct: Alkaline phosphatase from bovine; purchased Sigma-Aldrich; host or cells: bovine intestinal mucosa (tissue-derived)
The series is described as follows: Sensitivity of P-CyPt towards ALP (detection limit). The conditions noted are these: for Normalized FL intensity at 710 nm (individual replicates) / Normalized FL intensity at 710 nm, mean: Supplementary Fig. 6b. Type of series: biochemical.

The test system of series [3] is s.c. HeLa tumors. Description: Fluorescence imaging of varying sizes of s.c. HeLa tumors. It is filed as in vivo, mice. As to conditions: P-CyPt 100 μM, 200 μL i.v., 4 h. On the procedure:
page 21: Supplementary Figure 29. Fluorescence imaging of varying sizes of s.c. HeLa tumors in mice. (a) Representative fluorescence images of mice with s.c. HeLa tumors at a mean size of 3.8 ± 0.8, 22.1 ± 1.6, 46.4 ± 4.2, 75.9 ± 4.5 and 125.5 ± 12.7 mm3, respectively. […]) was i.v. injected into mice, and the whole-body fluorescence images were acquired at 0 and 4 h. Red arrows indicate the locations of tumors, and the black circle indicates the position chosen for the background in each mouse. (b) Calculated SBR in mice of different tumor sizes. […] Data denote mean ± s.d. (n = 3 independent animals). […] 21 (1 picture or pasted object on this page, not shown here)

T1 sequence (P19111 20-506 limits assumed): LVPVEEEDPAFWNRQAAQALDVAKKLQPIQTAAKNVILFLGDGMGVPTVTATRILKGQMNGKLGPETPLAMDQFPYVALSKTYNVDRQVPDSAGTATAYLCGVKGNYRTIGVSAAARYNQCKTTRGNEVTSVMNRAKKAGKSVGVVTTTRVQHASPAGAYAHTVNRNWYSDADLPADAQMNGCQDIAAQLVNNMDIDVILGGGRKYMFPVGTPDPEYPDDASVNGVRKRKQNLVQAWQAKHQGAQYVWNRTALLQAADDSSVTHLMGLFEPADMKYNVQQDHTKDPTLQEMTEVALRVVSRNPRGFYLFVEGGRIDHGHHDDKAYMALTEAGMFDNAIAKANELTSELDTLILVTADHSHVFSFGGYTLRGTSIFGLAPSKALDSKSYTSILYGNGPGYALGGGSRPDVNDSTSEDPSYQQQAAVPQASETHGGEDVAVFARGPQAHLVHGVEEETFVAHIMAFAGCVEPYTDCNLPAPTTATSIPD

For `CC1(C)C(/C=C/C2=C3Oc4cc(O)c(Cl)cc4C=C3CCC2)=[N+](CCCNC(=O)[C@@H](Cc2ccccc2)NC(=O)[C@@H](Cc2ccccc2)NC(=O)CCC(=O)[O][Pt]([NH2])([NH2])([OH])([Cl])[Cl])c2ccccc21` [CyPt], the “FL intensity at 710 nm” value in series [1] (concentration of CyPt 0.05 μM) is 2780; in series [1] (concentration of CyPt 0.1 μM), 5650; in series [1] (concentration of CyPt 0.2 μM), 11030; in series [1] (concentration of CyPt 0.3 μM) it was 17800; in series [1] (concentration of CyPt 0.5 μM) it was 19720; in series [1] (concentration of CyPt 1 μM) it was 24040. Further, the “FL intensity at 710 nm” value is 35120 in series [1] (concentration of CyPt 2 μM) and 46610 in series [1] (concentration of CyPt 3 μM). Further, the “critical micellar concentration (CMC)” value in series [1] (Tris buffer, fluorescence at 710 nm) is listed as “≈ 0.3 μM”.
Consider `CC1(C)C(/C=C/C2=C3Oc4cc(OP(=O)(O)O)c(Cl)cc4C=C3CCC2)=[N+](CCCNC(=O)[C@@H](Cc2ccccc2)NC(=O)[C@@H](Cc2ccccc2)NC(=O)CCC(=O)[O][Pt]([NH2])([NH2])([OH])([Cl])[Cl])c2ccccc21` [P-CyPt], for which, in the series with s.c. HeLa tumors [2], the “ex vivo tumor FL intensity higher than Pt^IVNPs-treated tumors” value is ~ 3.2 fold. For the same compound, the “Normalized FL intensity at 710 nm (individual replicates)” value on ALP (ALP concentration 0 U/L) was 0.8554 and 0.8726 and 0.8742; on ALP (ALP concentration 0.5 U/L) it was 0.9653 and 1.0053 and 1.0982; on ALP (ALP concentration 1 U/L), 1.1743 and 1.1873 and 1.137; on ALP (ALP concentration 2 U/L), 1.4406 and 1.5171 and 1.5718; at ALP (ALP concentration 5 U/L) it was 2.2381 and 2.3195 and 2.3579; on ALP (ALP concentration 10 U/L), 3.458 and 3.6281 and 3.6545. Moreover, the “Normalized FL intensity at 710 nm (individual replicates)” value on ALP (ALP concentration 15 U/L) is 4.5389 and 4.8786 and 4.9735; on ALP (ALP concentration 20 U/L), 5.7617 and 5.8661 and 6.3529. The “Normalized FL intensity at 710 nm, mean” value at ALP (ALP concentration 0 U/L) was found to be 0.867; at ALP (ALP concentration 0.5 U/L) it was 1.023; at ALP (ALP concentration 1 U/L), 1.166; at ALP (ALP concentration 2 U/L), 1.510; at ALP (ALP concentration 5 U/L), 2.305; on ALP (ALP concentration 10 U/L) it was 3.580. Besides, the “Normalized FL intensity at 710 nm, mean” value at ALP (ALP concentration 15 U/L) was 4.797; on ALP (ALP concentration 20 U/L), 5.994. Further, the “detection limit for ALP” value at ALP (P-CyPt 10 μM, 30 min, 3σ/k method) is recorded as ~ 0.098 U/L. Further, the “size of s.c. HeLa tumors still detected by NIR FL imaging” value with s.c. HeLa tumors [3] was found to be 3.8 ± 0.8 mm^3.
